From patent publication US20080305547A1, “Method for enhanced functional expression of cell receptors” (priority 2007, published 2008)

Tests used:
[1] = target: T1, mOR-EG (Mus musculus, UniProt Q920P2); test: cAMP ELISA in transfected HEK293T cells expressing mOR-EG; type: cell-based, murine; conditions: cells transfected with mOR-EG, Ric-8B and Gαolf; 300 μM
T1 construct: expressed in transfected cells; host or cells: HEK293T
T1 sequence (Q920P2 1-313): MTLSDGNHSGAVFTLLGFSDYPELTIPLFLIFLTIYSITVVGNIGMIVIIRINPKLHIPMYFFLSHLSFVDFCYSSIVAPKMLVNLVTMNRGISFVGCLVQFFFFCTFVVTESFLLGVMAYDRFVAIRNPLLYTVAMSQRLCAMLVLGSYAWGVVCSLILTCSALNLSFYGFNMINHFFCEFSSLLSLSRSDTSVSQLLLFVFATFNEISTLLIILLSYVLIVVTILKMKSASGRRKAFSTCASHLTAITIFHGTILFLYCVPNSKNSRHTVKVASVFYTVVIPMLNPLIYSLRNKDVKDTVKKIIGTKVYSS
Procedure: (§1) These experiments were carried out in order to determine if Ric-8B amplifies signaling through odorant receptors (“ORs” hereafter). This was accomplished by using one of the murine ORs, i.e., first cloning murine OR-EG (“mOR-EG” hereafter), from murine genomic DNA via polymerase chain reaction (“PCR”), using standard method. Following this, receptor specificity was confirmed by functional expression of the rhodopsin tagged version of mOR-EG, in HEK293T cells. This is explained infra.
(§2) HEK293T cells were plated, at 0.5×10^5 cells/well, of a 96 well plate. The cells were cultured using standard conditions, for 16-20 hours, after which they were transfected, via the well known, lipofectamine method with mOR-EG cDNA that had been subcloned into the XboI and KpnI restriction sites of plasmid pcDNA 3.1 (−), Gαolf whose full length cDNA had been cloned from murine olfactory epithelium, and subcloned into the XboI site of pcDNA 3.1 (−) expression vector, and Ric-8B, whose full length encoding cDNA had been prepared the same way and then cloned into pcDNA3 vector, with a flag epitope, at the BamHI site of pcDNA3 were used. 100 ngs of each cDNA construct were used for transfection. After 3 hours of transfection, serum containing medium was replaced by serum free medium, and the cells were incubated for 40 hours. Then, additional serum free medium containing 300 μM of eugenol was added, after which cells were incubated for 10 minutes. Activity was determined, by using a commercially available, cAMP ELISA kit.
(§3) In these experiments, mOR-EG odorant specificity was tested, in cells which had also been transfected with Ric-8B and Gαolf Vanillin, nonenedoic acid, acetophenone, (−), limonene, heptanol, 2-heptanol, hexanol, and (+/−) cerveone were tested at high concentrations (300 μM).

[2] = target: T2, mOR-EG (Mus musculus, UniProt Q920P2); conditions: previously shown; cited from earlier work
T2 construct: expressed in transfected cells; host or cells: HEK293T
T2 sequence (Q920P2 with tags, fused parts or gaps): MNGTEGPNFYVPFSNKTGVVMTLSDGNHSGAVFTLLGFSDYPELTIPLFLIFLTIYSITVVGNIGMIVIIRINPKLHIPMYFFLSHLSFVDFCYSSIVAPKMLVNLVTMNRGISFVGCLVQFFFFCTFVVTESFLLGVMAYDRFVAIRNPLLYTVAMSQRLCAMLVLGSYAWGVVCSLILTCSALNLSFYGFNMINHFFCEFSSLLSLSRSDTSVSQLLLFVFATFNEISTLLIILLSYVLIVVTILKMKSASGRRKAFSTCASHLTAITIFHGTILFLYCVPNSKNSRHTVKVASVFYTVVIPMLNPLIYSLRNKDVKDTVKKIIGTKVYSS

[3] = target: T1, mOR-EG; test: cAMP ELISA in transfected HEK293T cells expressing mOR-EG; type: cell-based, murine; conditions: HEK293T transfected with untagged mOR-EG and Gαolf; 300 μM, 10 minutes
[4] = target: T2, mOR-EG; test: as above; type: cell-based, murine; conditions: HEK293T transfected with rhodopsin tagged mOR-EG, Gαolf (and Ric-8B); 300 μM, 10 minutes
Procedure: as §1, §2, §3

[5] = target: T3, murine form of OR-17 (Mus musculus, UniProt Q9QWU6); conditions: co-expression with Gα/16 in HEK293 cells; cited from earlier work
T3 construct: host or cells: HEK293
T3 sequence (Q9QWU6 1-327): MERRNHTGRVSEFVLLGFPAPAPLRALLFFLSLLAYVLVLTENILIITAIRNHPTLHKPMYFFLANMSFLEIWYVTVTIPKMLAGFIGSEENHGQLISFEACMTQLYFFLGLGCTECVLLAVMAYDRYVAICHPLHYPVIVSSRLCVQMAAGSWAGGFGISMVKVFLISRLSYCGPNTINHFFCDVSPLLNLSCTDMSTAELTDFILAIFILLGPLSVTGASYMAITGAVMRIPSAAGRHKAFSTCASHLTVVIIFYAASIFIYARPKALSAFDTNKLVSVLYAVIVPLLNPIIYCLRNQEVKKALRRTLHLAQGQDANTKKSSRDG

[6] = target: T4, OR-17 (Mus musculus, UniProt Q9QWU6); conditions: GFP tagged mouse olfactory neurons endogenously expressing OR-17; cited from earlier work
T4 construct: mouse olfactory neurons which endogenously express OR-17; host or cells: mouse olfactory neurons
T4 sequence (Q9QWU6 1-327): T3 sequence (Q9QWU6 1-327)

[7] = target: T5, mOR-17 (Mus musculus, UniProt Q9QWU6); test: cAMP ELISA in transfected HEK293T cells expressing mOR-17; type: cell-based, murine
T5 construct: expressed in transfected cells; host or cells: HEK293T
T5 sequence (Q9QWU6 1-327): T3 sequence (Q9QWU6 1-327)
Procedure: as §2
To further this work, the same protocols as are described supra were carried out, using untagged mOR-17, Gαolf, Ric-8B, and RTP1.

[8] = system: mOR-S6; test: cAMP ELISA in transfected HEK293T cells expressing mOR-S6; type: cell-based, murine
Procedure: as §2
The same procedures set forth supra for isolating, cloning, and amplifying mOR-EG were used for the coding region of mOR-S6. Rhodopsin tagged mOR-S6 was also used. The same protocols were carried out as are discussed supra, using nonanedoic acid as the agonist.

[9] = system: mOR-S6; conditions: murine olfactory neurons, single cell RT-PCR; cited from earlier work
[10] = target: T6, rat OR-17 (Rattus norvegicus, UniProt P23270); conditions: cited from earlier work
T6 sequence (P23270 1-327): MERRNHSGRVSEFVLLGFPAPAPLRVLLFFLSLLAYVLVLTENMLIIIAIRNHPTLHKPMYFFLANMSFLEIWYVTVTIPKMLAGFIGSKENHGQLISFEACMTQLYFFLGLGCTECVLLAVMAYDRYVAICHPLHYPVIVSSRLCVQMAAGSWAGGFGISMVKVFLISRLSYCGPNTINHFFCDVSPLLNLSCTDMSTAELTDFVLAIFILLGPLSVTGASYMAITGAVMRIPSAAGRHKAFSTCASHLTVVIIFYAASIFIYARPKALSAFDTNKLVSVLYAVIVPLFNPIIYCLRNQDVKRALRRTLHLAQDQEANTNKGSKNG

C=C(C)C1CC=C(C)C(=O)C1 (racemic) [(+/−) cerveone, cerveone]
stimulation of cAMP production (odorant specificity) [1]: Only eugenol stimulated production of cAMP

CCCCCC(C)O (stereo not drawn) [2-heptanol]
stimulation of cAMP production (odorant specificity) [1]: Only eugenol stimulated production of cAMP

COc1cc(C=O)ccc1O [Vanillin]
stimulation of rhodopsin tagged mOR-EG [2]: has been shown to stimulate | stimulation of cAMP production (odorant specificity) [1]: Only eugenol stimulated production of cAMP

CC(=O)c1ccccc1 [acetophenone]
stimulation of cAMP production (odorant specificity) [1]: Only eugenol stimulated production of cAMP

C=CCc1ccc(O)c(OC)c1 [eugenol]
response to the agonist (cAMP) [3]: did not respond | increase in cAMP levels as compared to unstimulated cells (factor) [4]: ~3 | stimulation of cAMP production (odorant specificity) [1]: stimulated production of cAMP

CCCCCCC=O [heptanal]
recognition of odorant by receptor [5]: preferentially recognizes | recognition of odorant by receptor [6]: recognized | response of transfected cells to odorant (cAMP) ([7]; all four elements: untagged mOR-17, Gαolf, Ric-8B and RTP1): responded to heptanal specifically | response of transfected cells to odorant (cAMP) ([7]; untagged mOR-17, Gαolf and RTP1 (RTP1 replaced Ric-8B)): did not | response of transfected cells to odorant (cAMP) ([7]; untagged mOR-17, Gαolf and Ric-8B): responded

CCCCCCCO [heptanol]
stimulation of cAMP production (odorant specificity) [1]: Only eugenol stimulated production of cAMP

CCCCCCO [hexanol]
stimulation of cAMP production (odorant specificity) [1]: Only eugenol stimulated production of cAMP

C=C(C)[C@H]1CC=C(C)CC1 [limonene]
stimulation of cAMP production (odorant specificity) [1]: Only eugenol stimulated production of cAMP

O=C(O)CCCCCCCC(=O)O [nonanedoic acid]
stimulation of cAMP production (odorant specificity) [1]: Only eugenol stimulated production of cAMP | increase in cAMP production ([8]; all four elements: rhodopsin tagged mOR-S6, Ric-8B, RTP1 and Gαolf): significant increase | increase in cAMP production ([8]; cells co-transfected with mOR-S6, Gαolf and Ric-8B): no significant increase | increase in cAMP production ([8]; cells co-transfected with mOR-S6 and Gαolf): no significant increase | increase in cAMP production ([8]; mOR-S6, Gαolf and RTP1 (RTP1 replaced Ric-8B)): slight, insignificant increase | increase in cAMP production ([8]; non-tagged mOR-S6 in parallel expression systems (Ric-8B, RTP1, Gαolf)): not observed | response of the OR to the odorant [9]: responded

CCCCCCCCO [octanol]
recognition of odorant by receptor [10]: recognizes
